Assay results: BindingDB's records for doi:10.1021/bi7019707 (Emory University, 2008)

What was measured:
Test in all cases: Inhibition Assay
[1] = target: T1, Amine oxidase [flavin-containing] B (Homo sapiens, UniProt P27338)
T1 sequence (P27338 whole entry): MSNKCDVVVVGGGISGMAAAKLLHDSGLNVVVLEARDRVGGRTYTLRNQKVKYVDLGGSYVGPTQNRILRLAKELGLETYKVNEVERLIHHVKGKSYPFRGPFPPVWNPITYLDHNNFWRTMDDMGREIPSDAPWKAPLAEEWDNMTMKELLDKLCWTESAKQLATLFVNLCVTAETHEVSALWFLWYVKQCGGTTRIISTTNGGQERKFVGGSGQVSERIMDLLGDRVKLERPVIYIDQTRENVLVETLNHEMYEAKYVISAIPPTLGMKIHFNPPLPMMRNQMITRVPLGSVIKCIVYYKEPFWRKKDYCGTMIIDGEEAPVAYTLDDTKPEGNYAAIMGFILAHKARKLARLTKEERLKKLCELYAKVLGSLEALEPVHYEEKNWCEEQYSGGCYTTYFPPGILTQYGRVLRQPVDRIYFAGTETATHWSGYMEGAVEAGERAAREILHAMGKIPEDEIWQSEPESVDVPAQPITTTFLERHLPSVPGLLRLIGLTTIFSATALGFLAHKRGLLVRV
Excerpt: (§1) Competitive inhibition assay using human and rat MAOs.

[2] = target: T2, Amine oxidase [flavin-containing] A (Rattus norvegicus, UniProt P21396)
T2 sequence (P21396 whole entry): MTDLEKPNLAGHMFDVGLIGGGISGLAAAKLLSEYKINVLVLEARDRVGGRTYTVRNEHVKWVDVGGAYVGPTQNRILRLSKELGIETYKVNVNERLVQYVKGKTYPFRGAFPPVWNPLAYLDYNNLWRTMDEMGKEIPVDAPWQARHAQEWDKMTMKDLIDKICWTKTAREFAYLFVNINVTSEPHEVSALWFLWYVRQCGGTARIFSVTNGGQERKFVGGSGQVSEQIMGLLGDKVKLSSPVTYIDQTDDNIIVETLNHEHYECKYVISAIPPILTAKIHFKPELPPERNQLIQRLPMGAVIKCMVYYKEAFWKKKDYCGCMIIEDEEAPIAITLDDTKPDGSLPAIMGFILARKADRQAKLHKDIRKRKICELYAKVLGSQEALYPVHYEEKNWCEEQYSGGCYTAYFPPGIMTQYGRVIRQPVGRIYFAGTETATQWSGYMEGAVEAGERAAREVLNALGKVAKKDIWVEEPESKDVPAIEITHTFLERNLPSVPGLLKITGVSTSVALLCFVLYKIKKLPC
Excerpt: as §1

[3] = target: T3, Amine oxidase [flavin-containing] B (Rattus norvegicus, UniProt P19643)
T3 sequence (P19643 whole entry): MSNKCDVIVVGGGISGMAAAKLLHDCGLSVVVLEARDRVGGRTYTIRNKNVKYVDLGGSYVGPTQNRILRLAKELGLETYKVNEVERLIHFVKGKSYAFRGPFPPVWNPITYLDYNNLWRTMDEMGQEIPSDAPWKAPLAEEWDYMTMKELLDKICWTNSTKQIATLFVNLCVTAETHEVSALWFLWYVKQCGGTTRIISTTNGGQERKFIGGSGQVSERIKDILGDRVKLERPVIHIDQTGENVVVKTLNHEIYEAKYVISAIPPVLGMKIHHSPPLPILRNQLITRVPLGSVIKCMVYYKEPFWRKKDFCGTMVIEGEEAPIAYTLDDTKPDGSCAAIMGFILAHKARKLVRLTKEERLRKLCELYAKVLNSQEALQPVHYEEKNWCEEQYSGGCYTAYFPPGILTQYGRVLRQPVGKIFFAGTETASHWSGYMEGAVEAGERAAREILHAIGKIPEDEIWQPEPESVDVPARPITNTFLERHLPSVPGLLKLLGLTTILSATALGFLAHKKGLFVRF
Excerpt: as §1

[4] = target: T4, Amine oxidase [flavin-containing] A (Homo sapiens, UniProt P21397)
T4 sequence (P21397 whole entry): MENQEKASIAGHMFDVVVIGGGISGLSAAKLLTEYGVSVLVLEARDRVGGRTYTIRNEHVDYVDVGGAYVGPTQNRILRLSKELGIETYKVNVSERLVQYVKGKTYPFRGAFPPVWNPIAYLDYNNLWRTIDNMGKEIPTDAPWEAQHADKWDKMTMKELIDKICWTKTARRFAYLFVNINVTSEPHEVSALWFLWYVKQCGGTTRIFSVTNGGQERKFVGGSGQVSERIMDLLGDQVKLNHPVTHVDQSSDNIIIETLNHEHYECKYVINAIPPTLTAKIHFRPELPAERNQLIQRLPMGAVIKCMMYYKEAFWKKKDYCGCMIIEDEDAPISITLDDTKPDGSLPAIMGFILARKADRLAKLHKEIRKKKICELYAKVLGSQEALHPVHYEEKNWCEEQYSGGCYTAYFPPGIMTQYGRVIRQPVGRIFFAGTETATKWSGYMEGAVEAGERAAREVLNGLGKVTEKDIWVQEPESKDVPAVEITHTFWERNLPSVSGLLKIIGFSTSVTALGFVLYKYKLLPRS
Excerpt: as §1

C#CCN(C)Cc1ccc(CC(=O)NC2CC(C)(C)N(O)C(C)(C)C2)cc1 [ParSL] was tested, and the Ki [1] was 22 µM, the Ki [2] was 151 µM and the Ki [3] was 107 µM. For the same molecule, the Ki [4] was 212 µM.
